Experiment: Stability test (influencing factors: high temperature/humidity and strong light irradiation), total impurities
Type: physicochemical
Experimental: A suitable amount of the crystal of the compound of formula (I) prepared in Example 4 was accurately weighed, and methanol was then added thereto to dissolve the crystal. It was diluted quantitatively to obtain a solution containing about 50 μg of the compound per 1 ml of the solution. 10 μl of the solution was accurately measured and injected into the liquid chromatograph, and the chromatogram was recorded. In addition, a suitable amount of the compound of formula (I) was weighed as a control, and measured by the same method as described in the above. The purity was calculated through external standard method based on peak areas.
Referring to the test method of influencing factors for raw materials described in the Chinese Pharmacopoeia, 2010 edition, Part II, Appendix XIX C, a high-temperature experiment (40° C.±2° C. and a relative humidity of 75%±5%) and strong light irradiation experiment (4500l×±500l×) were conducted on the crystal of the compound of formula (I) prepared in Example 4 for 10 days, respectively. Samples were taken on day 0 and day 10 to measure a total amount of impurities and determine the stability.

Structure (SMILES): Cn1c(Nc2ccc(I)cc2Cl)c(C(=O)NOCCO)c2occc2c1=O [6-(2-chloro-4-iodophenylamino)-N-(2-hydroxylethyoxyl)-5-methyl-4-oxo-4,5-dihydrofuro[3,2-c]pyridine-7-carboxamide]
- Total amount of impurities (%) (At 40° C., 10 days (40° C.±2° C., relative humidity 75%±5%)): 0.60%
- Total amount of impurities (%) (Day 0): 0.57%
- Total amount of impurities (%) (Irradiation for 10 days (strong light, 4500l×±500l×)): 0.68%
